{
  "source": "patent US20140200142A1",
  "about": "“TREATMENT OF STORED TUBERS WITH AEROSOLS OF HIGHER ALCOHOLS” (1,4 Group, Inc., priority 2013, published 2014)",
  "key": {"[1]": {"test_system": "existing sprouts on post-dormant potatoes with peeps and sprouts extant", "test": "Comparison of thermofogged sprout suppressing chemicals for \"burn\" of existing sprouts (Example IV)", "assay_type": "in vivo", "set-up": "key to Burn “old” / Burn “new”: +: indicates fair effectiveness; ++: indicates good effectiveness; +++: indicates excellent effectiveness; A minus (−) sign indicates no noticeable effect; a +/− sign indicates only partial effectiveness at a minimal level", "conditions": "for Burn “old”: effect upon old sprouts, up to nine months old; for Burn “old” / Burn “new”: thermofogged at comparable dosages; for Burn “new”: newly emerged sprouts and peeps, generally less than a month", "experimental": "Various sprout suppressing chemicals were compared for their ability to suppress existing sprouts on post-dormant potatoes with peeps and sprouts extant. […] Clove oil applied at a predetermined dosage gave a “burn” effectiveness of 46% of existing peeps while 1-nonanol at a dosage one-fourth as great gave a 50% “burn.” At a one-half dosage, 1-nonanol provided a 100% “burn” effectiveness within 24 hours after treatment. In the above table “Burn old” refers to the effect upon old sprouts, which included sprouts up to nine months old, these being generally more difficult to desiccate, while “burn new” refers to newly emerged sprouts and peeps, generally less than a month or so in existence."}, "stored potatoes": {"test_system": "stored potatoes", "conditions": "continuous vapors by wicking over an extended period; cited from earlier work"}, "potatoes": {"test_system": "potatoes", "test": "1-octanol thermofog on cold versus 53° F. potatoes, condensation damage (Example V)", "assay_type": "in vivo", "experimental": "An experiment was performed wherein 1-octanol at various dosages were applied to potatoes wherein the temperature of the potatoes was at about 36° F. The 1-octanol was applied via an electric thermofogger at a fog temperature within the fogger of about 500° F. to obtain a stable aerosol. The potatoes were examined about 24 hours after treatment. […] The potatoes were cut open at the dark spots. Damage to the flesh of the potatoes existed to a depth of about 5 mm to 25 mm. Potato flesh was otherwise undamaged except under the dark spots."}, "[2]": {"test_system": "peeps and sprouts on stored potatoes", "test": "Thermofog treatment of stored potatoes with 1-nonanol to determine sprout destruction (Example II)", "assay_type": "in vivo", "experimental": "Stored potatoes in a small open container were treated with 1-nonanol (n-nonyl alcohol) via a thermofogger to determine sprout destruction. The thermofogger was operated at an aerosol chamber temperature of about 500° F. A good stable aerosol was produced. The alcohol was applied at a dosage of 8 ml for 2 kg of potatoes. The system was open so that the actual dosage reaching the potatoes was considerably less than the fogged amount. The potatoes were exposed to the thermofog for approximately one minute, after which the treatment containers (1-gallon bottles) were sealed and held at 53° F. for 24 hours before being connected to normal storage ventilation. In a first test the potatoes had white “peeps” showing from the eyes before treatment. […] In a second test the potatoes were treated with 1-nonanol at the same fogging temperature and dosage for the same period of time to achieve the same application dosage as in Example I. The potatoes in this storage had sprouts averaging in excess of about 2 cm in length. In this experiment, potatoes with very long sprouts, some up to eight cm or more, were treated with 1, 2, and 4 times sequentially with full strength nonanol. […] This “spray-paint” method was thus used to try to bring the total amount (rate) of nonanol up to a level capable of killing large sprouts as well as peeps, a necessity in commercial settings where sprouts of all sizes exist. It required 4 applications to reach the level at which these large sprouts were completely killed. […] While this was a small scale test, a whole storage full of potatoes in this condition would likely lead to secondary decays. Single or even double applications didn't reach a level of nonanol high enough to completely kill these large-sized sprouts."}, "peeps and sprouts": {"test_system": "peeps and sprouts", "test": "Fogging of 1-nonanol versus clove oil, \"burning\" peeps and sprouts (Example III)", "assay_type": "in vivo, potatoes", "conditions": "short duration, similar dosages"}},
  "data": [
    {"compound": "CCCCCCCCCCO", "note": "[1-Decanol, 1-decanol]", "values": [
      {"measurement": "Burn “old”", "setting": "[1]", "result": "++"},
      {"measurement": "Burn “new”", "setting": "[1]", "result": "++"}
    ]},
    {"compound": "CC(CCO)CC(C)(C)C", "note": "(centres unmarked) [3,5,5-trimethyl hexanol]", "values": [
      {"measurement": "damage to potato flesh", "setting": "stored potatoes", "result": "damaged potato flesh, especially near affected eyes"},
      {"measurement": "effect on existing sprouts", "setting": "stored potatoes", "result": "strongly “burned” (desiccated) existing sprouts"}
    ]},
    {"compound": "CCCCCCCCO", "note": "[1-Octanol, 1-octanol]", "values": [
      {"measurement": "Burn “old”", "setting": "[1]", "result": "++"},
      {"measurement": "Burn “new”", "setting": "[1]", "result": "+++"},
      {"measurement": "depth of damage to the flesh at the dark spots", "setting": "potatoes; potato, in vivo, 24 h", "result": "5-25 mm"},
      {"measurement": "condition of potato skin", "setting": "potatoes; potatoes at about 36° F., examined about 24 hours after treatment", "result": "large dark damaged spots"},
      {"measurement": "injury to potato skin or flesh", "setting": "potatoes; potatoes held at 53° F., similar dosage, fogging temperature and rate", "result": "did not show injury to the potato skin or to its flesh"}
    ]},
    {"compound": "CCCCCCO", "note": "[Hexanol]", "values": [
      {"measurement": "Burn “old”", "setting": "[1]", "result": "+"},
      {"measurement": "Burn “new”", "setting": "[1]", "result": "++"}
    ]},
    {"compound": "CCCCCCCCCO", "note": "[1-Nonanol, 1-nonanol]", "values": [
      {"measurement": "“burn” effectiveness of existing peeps", "setting": "[1]; dosage one-fourth as great as the clove oil dosage", "result": 50, "unit": "%"},
      {"measurement": "Burn “old”", "setting": "[1]", "result": "+++"},
      {"measurement": "Burn “new”", "setting": "[1]", "result": "+++"},
      {"measurement": "“burn” effectiveness of existing peeps", "setting": "[1]; one-half dosage, within 24 hours after treatment", "result": 100, "unit": "%"},
      {"measurement": "effect on white “peeps”", "setting": "[2]; first test, 8 ml for 2 kg of potatoes fogged, open system, inspected about 24 hours after treatment", "result": "burned to a dark color and were inactivated"},
      {"measurement": "damage to potato flesh adjacent the eyes", "setting": "[2]; first test, about 24 hours after treatment", "result": "without any damage to potato flesh adjacent the eyes"},
      {"measurement": "negative side effect observed", "setting": "[2]; second test, 4 applications on large sprouts", "result": "wet, slimy, sprout rot"},
      {"measurement": "applications required to completely kill large sprouts", "setting": "[2]; second test, sprouts up to eight cm or more, sequential full strength applications", "result": 4, "unit": "applications"},
      {"measurement": "effectiveness in “burning” peeps and sprouts relative to clove oil", "setting": "peeps and sprouts", "result": "about four times as effective as clove oil"}
    ]},
    {"compound": "CCCCCOC(C)=O", "note": "[AmylAcetate, reference compound]", "values": [
      {"measurement": "Burn “new”", "setting": "[1]", "result": "++"}
    ]},
    {"compound": "CCCCCCCCCCCCO", "note": "[Dodecanol]", "values": [
      {"measurement": "Burn “old”", "setting": "[1]", "result": "−\\+"},
      {"measurement": "Burn “new”", "setting": "[1]", "result": "−"}
    ]}
  ]
}
